For series [1], the target named is T1, nitric oxide synthase (Mus musculus, UniProt P29477).
T1 sequence (P29477 1-1144): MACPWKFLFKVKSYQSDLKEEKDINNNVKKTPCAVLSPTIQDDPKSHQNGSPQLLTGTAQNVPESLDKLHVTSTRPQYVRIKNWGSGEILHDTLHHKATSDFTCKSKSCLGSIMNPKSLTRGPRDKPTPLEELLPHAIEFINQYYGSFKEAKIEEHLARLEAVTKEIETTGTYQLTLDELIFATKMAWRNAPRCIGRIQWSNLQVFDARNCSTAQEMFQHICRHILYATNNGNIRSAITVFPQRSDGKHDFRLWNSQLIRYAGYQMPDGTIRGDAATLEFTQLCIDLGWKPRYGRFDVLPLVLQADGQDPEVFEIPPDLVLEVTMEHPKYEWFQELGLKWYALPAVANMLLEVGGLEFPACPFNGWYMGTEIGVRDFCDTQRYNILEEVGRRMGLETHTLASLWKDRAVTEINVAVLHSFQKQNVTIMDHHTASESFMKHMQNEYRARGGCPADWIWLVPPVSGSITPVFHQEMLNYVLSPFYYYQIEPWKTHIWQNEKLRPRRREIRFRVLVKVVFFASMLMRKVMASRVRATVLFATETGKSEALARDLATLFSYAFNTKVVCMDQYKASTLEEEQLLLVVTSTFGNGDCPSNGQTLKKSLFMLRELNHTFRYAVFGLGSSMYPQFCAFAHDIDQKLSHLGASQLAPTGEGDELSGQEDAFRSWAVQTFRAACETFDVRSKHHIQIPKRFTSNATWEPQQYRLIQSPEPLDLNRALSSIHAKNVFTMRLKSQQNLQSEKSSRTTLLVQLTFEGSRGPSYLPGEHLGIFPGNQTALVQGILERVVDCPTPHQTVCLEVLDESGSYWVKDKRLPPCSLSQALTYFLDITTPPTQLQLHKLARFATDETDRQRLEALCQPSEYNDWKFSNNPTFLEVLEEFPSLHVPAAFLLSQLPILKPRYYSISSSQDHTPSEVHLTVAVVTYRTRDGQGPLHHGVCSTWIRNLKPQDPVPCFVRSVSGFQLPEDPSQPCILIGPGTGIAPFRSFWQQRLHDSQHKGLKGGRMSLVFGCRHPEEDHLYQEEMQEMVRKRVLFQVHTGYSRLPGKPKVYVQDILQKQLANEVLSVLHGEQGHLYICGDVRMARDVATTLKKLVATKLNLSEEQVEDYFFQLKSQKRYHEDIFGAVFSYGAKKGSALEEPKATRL
Kind of series: NOS inhibition assay: nitric oxide (nitrite, Greiss reagent) production from PAM 212 keratinocytes stimulated with gamma interferon. Format: cell-based. As to conditions: 100 U/ml gamma interferon, 72 hours, nitrite in medium.

Series [2] has as its system PAM 212 cells. Kind of series: Antiproliferative assay, PAM 212 tumor cells counted with Coulter counter. Format: cell-based. The settings on record: Mus musculus, PAM212, grown 4 to 5 days, read-out: IC50, concentration inhibiting cell growth by 50%. An excerpt:
The ability of any one of the compounds according to the present invention to inhibit cell growth is recognized by the scientific community to be directly related to its therapeutic potential as an anticancer agent. This type of growth assay can be used with mammalian cancer cells as well as with pathogenic and non-pathogenic microbes, including, but not limited to, yeasts and bacteria. To assay these compounds for anticancer activity, tumor cells (PAM 212) grown in vitro in monolayer culture flasks were used. […] Triplicate wells on the plates were used to measure control growth and growth of the cells in the presence of each concentration of anticancer agent. The cells were then returned to the incubator. […] The cells from each well on the culture dishes were removed by trypsin treatment and counted with a Coulter counter. After a period of time, the number of cells in each well was determined. The data can be presented as a curve showing the inhibition of tumor cell growth with increasing concentrations of the test compound. […] Each of the compounds according to the present invention was a potent inhibitor of cell growth with the IC50 values being typically in the micromolar concentration range.

As for `C1=Nn2c(nnc2-c2cccs2)SC(c2ccccc2)=C1` [IVc], the melting point (as a rule, the temperature, or range, at which the solid turns liquid) was 164 to 166 °C. In series [1], the IC50 came out at 48 µM.
Molecule `Cc1nnc2n1N(C)C(C=Cc1ccccc1)S2` (stereo not drawn) [IXf] yielded a melting point of 125 to 126 °C. For the same molecule, the IC50 in series [2] was more than 100 µM. In addition, in series [1], the IC50 turned out to be 17 µM.
Molecule `Nn1c(S)nnc1-c1ccc(F)cc1` [III (R = 4-F—C6H4—)] returned an IC50 in series [1] of 98 µM.
The same measure, in the same setting: as for `Nn1c(-c2cccs2)n[nH]c1=S` [III (R = 2-thienyl), 4-amino-3-mercapto-5-(2-thienyl)-(4H)-1,2,4-triazole], the figure is 77 µM.
Consider `Cc1nnc2n1N=C(C(F)(F)F)CS2` [VIIIc], for which the melting point is 85 to 86 °C. For the same molecule, the IC50 in series [1] was more than 100 µM.
On the same counts, the results for `CC(CC(=O)Oc1ccccc1)Sc1nnc(-c2cccs2)n1N` (stereo not drawn) [VIb] are 109.5 to 111 °C and more than 100 µM.
In turn, `Oc1cccc(C=Nn2c(S)nnc2-c2cccnc2)c1O` [VIIr] gave an IC50 in series [1] of 29 µM.
Same read-out and setting: to `Brc1ccccc1-c1nnc2n1N=CC=C(c1ccccc1)S2` [IV (R = 2-Br—C6H4—, R′ = H)] belongs 87 µM.
In the case of `C1=C(c2ccccc2)Sc2nnc(-c3ccccc3)n2NC1` [Va], the melting point lay in the range of 222 to 223 °C. The same molecule returned an IC50 in series [1] of 110 µM.
`CC(CCCl)Sc1nnc(-c2cccs2)n1N` (stereo not drawn) displayed a melting point of 196 to 197 °C.
The molecule `CN1C(C=Cc2ccccc2)Sc2nnc(-c3ccco3)n21` (stereo not drawn) [IXd] came in with a melting point of 128 to 129.5 °C. Besides, the IC50 in series [2] amounted to 45 µM. In addition, the IC50 in series [1] was determined as 14 µM.
Molecule `Sc1nnc(-c2cccs2)n1N=CC=Cc1ccccc1` [VIIa, 4-imino-(cinnamyl)-3-mercapto-5-(2-thienyl)-4H-1,2,4-triazole] displayed a melting point of 206 to 206.5 °C. Further, the IC50 in series [1] was 35 µM.
In turn, `Fc1ccc(-c2nnc3n2N=C(C(F)(F)F)CS3)cc1` had an IC50 in series [1] of 30 µM.
Still for that read-out and setting: as for `COC(=O)CCSc1nnc(C)n1N` [VI (R = methyl, R′ = —CH2—CH2—COOMe)], the figure is 170 µM.
Molecule `O=[N+]([O-])c1ccccc1C=CC=Nn1c(S)nnc1-c1cccs1` [Compound VIIc] registered a melting point of 214 to 215 °C. Further, the IC50 in series [2] worked out at 60 µM. The IC50 in series [1] is 12 µM.
On the same counts, the results for `CN1C(C=Cc2ccccc2)Sc2nnc(-c3cccs3)n21` (stereo not drawn) [IXa] are 250 to 252 °C, 44 µM and 15 µM.
As for `C1=Nn2c(Cc3ccccc3)nnc2SC(c2ccccc2)=C1` [IV (R = benzyl, R′ = H)], in series [1], the IC50 was determined as 52 µM.
In series [1], `CSc1nnc(C2CCCCC2)n1N=CC(Br)=Cc1ccccc1` [Compound Xi] came in with an IC50 of 146 µM.
The molecule `Fc1ccc(-c2nnc3n2N=CC=C(c2ccccc2)S3)cc1` [IVb] yielded a melting point of 217 to 219 °C. Moreover, the IC50 in series [1] worked out at 21 µM.
On the same counts, the results for `COc1ccccc1C=CC=Nn1c(S)nnc1-c1cccs1` [VIIb] are 227 to 228 °C and more than 100 µM.
Turning to `Fc1ccc(-c2nnc3n2N=C(c2ccccc2)CS3)cc1` [VIII (R = 4-F—C6H4—, R′ = phenyl)], the IC50 in series [1] was more than 100 µM.

These data come from patent US20020032325A1, “4-amino-3-mercapto-1,2,4-triazoles” (priority 1999, published 2002).
